Assay results taken from patent US20240239781A1, “1H-PYRAZOLE DERIVATIVES AS SIGMA LIGANDS” (ACONDICIONAMIENTO TARRASENSE, priority 2021, published 2024).

Legend:
[1] = target: T1, human σ1 receptor (Homo sapiens, UniProt Q99720); assay: Human σ1 receptor radioligand assay ([3H](+)-pentazocine, transfected HEK-293 membranes); conditions: class scale, read-out: Binding σ-1 Ki
T1 construct: expressed in transfected cells; host or cells: HEK-293
Method in brief: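 Compounds were tested at a single 1 or 10 μM concentration (% inhibition) or at five concentrations to give Ki. They competed with 5 nM [3H](+)-pentazocine for transfected HEK-293 membranes (7 μg) in 50 mM Tris-HCl pH 8 at 37° C for 120 minutes. Nonspecific binding was set with 10 μM haloperidol, and a filtration scintillation read-out was used.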

[2] = target: T2, human σ2/TMEM97 receptor (Homo sapiens, UniProt Q5BJF2); assay: Binding assay to human σ2/TMEM97 receptor ([3H]-DTG, transfected HEK-293 membranes); conditions: class scale, read-out: Binding σ-2 Ki
T2 construct: expressed in transfected cells; host or cells: HEK-293
T2 sequence (Q5BJF2 whole entry): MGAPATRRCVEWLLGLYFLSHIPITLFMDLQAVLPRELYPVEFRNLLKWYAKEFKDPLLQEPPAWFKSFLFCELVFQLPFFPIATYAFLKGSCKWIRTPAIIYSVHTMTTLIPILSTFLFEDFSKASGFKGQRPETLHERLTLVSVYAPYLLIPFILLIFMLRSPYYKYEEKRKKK
Method in brief: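 Competition against 10 nM [3H]-DTG (Tris-HCl 50 mM, pH 8.0, 25 °C, 120 min) using 15 μg transfected HEK-293 membrane protein, with 10 μM haloperidol defining NSB. Bound radioactivity counted after filtration; results as single-point % inhibition (1 or 10 μM) or five-point Ki.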

T1 sequence (Q99720 whole entry): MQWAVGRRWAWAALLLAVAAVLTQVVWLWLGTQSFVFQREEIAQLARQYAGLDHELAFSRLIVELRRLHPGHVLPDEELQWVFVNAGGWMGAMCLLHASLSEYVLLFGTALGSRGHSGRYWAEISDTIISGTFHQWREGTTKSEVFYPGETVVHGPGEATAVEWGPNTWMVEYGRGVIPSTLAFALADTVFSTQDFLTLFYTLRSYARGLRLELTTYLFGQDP

SMILES	Ki [1] [nM]	Ki [2] [nM]
Cn1nc(-c2ccccn2)c(CN2CCCCC(NCCC(C)(C)C)C2)c1Cl (stereo not shown) [Example 25, 1-((5-Chloro-1-methyl-3-(pyridin-2-yl)-1H-pyrazol-4-yl)methyl)-N-(3,3-dimethylbutyl)azepan-3-amine]	< 100	> 1000
Cn1nc(-c2cccnc2)c(CN2CCCCC(NCCC(C)(C)C)C2)c1Cl (stereo not shown) [Example 30, 1-((5-Chloro-1-methyl-3-(pyridin-3-yl)-1H-pyrazol-4-yl)methyl)-N-(3,3-dimethylbutyl)azepan-3-amine]	100 to 500	> 1000
CCc1cc(-c2nn(C)c(Cl)c2CN2CCCCC(NCCC(C)(C)C)C2)no1 (stereo not shown) [Example 20, 1-((5-Chloro-3-(5-ethylisoxazol-3-yl)-1-methyl-1H-pyrazol-4-yl)methyl)-N-(3,3-dimethylbutyl)azepan-3-amine]	100 to 500	100 to 500
Cc1cc(-c2nn(C)c(Cl)c2CN2CCC3(C2)CN(CCc2ccccc2)C3)no1 [Example 61, 3-(5-Chloro-1-methyl-4-((2-phenethyl-2,6-diazaspiro[3.4]octan-6-yl)methyl)-1H-pyrazol-3-yl)-5-methylisoxazole]	100 to 500	< 100
Cc1cc(-c2nn(C)c(Cl)c2C(=O)N2CCCCC(NCc3ccccc3)C2)no1 (stereo not shown) [Example 86, (3-(Benzylamino)azepan-1-yl)(5-chloro-1-methyl-3-(5-methylisoxazol-3-yl)-1H-pyrazol-4-yl)methanone]	> 1000	100 to 500
Cc1onc(-c2nn(C)c(Cl)c2CN2CCCCC(NCCC(C)C)C2)c1C (stereo not shown) [Example 37, 1-((5-Chloro-3-(4,5-dimethylisoxazol-3-yl)-1-methyl-1H-pyrazol-4-yl)methyl)-N-isopentylazepan-3-amine]	100 to 500	100 to 500
Cc1cc(-c2nn(C)c(Cl)c2C(=O)N2CCC3(CCN(CC(=O)N4CCCCC4)CC3)CC2)no1 [Example 112, 2-(9-(5-Chloro-1-methyl-3-(5-methylisoxazol-3-yl)-1H-pyrazole-4-carbonyl)-3,9-diazaspiro[5.5]undecan-3-yl)-1-(piperidin-1-yl)ethanone]	> 1000	100 to 500
Cc1cc(-c2nn(C)c(Cl)c2C(=O)NC2CCC3(CC2)CCN(CCC(C)(C)C)CC3)no1 [Example 107, 5-Chloro-N-(3-(3,3-dimethylbutyl)-3-azaspiro[5.5]undecan-9-yl)-1-methyl-3-(5-methylisoxazol-3-yl)-1H-pyrazole-4-carboxamide]	100 to 500	< 100
Cc1cc(-c2nn(C)c(Cl)c2CN2CC[C@]3(CCN(CCC(C)(C)C)C3)C2)no1 [Example 69, (S)-3-(5-Chloro-4-((7-(3,3-dimethylbutyl)-2,7-diazaspiro[4.4]nonan-2-yl)methyl)-1-methyl-1H-pyrazol-3-yl)-5-methylisoxazole]	< 100	< 100
CCCCNC1CCCCN(Cc2c(-c3cc(C)on3)nn(C)c2Cl)C1 (stereo not shown) [Example 9, N-Butyl-1-((5-chloro-1-methyl-3-(5-methylisoxazol-3-yl)-1H-pyrazol-4-yl)methyl)azepan-3-amine]	> 1000	500 to 1000
CCc1cc(-c2nn(C)c(Cl)c2C(=O)N2CCC3(CCN(CCC(C)(C)C)CC3)CC2)no1 [Example 97, (5-Chloro-3-(5-ethylisoxazol-3-yl)-1-methyl-1H-pyrazol-4-yl)(9-(3,3-dimethylbutyl)-3,9-diazaspiro[5.5]undecan-3-yl)methanone]	100 to 500	< 100
Cc1cc(-c2nn(C)c(Cl)c2CN2CCCCC(CNCCC(C)C)C2)no1 (stereo not shown) [Example 59, N-((1-((5-Chloro-1-methyl-3-(5-methylisoxazol-3-yl)-1H-pyrazol-4-yl)methyl)azepan-3-yl)methyl)-3-methylbutan-1-amine]	500 to 1000	100 to 500
Cc1cc(-c2nn(C)c(Cl)c2C(=O)N2CCC3(CCN(CC(=O)N4CCC(F)(F)CC4)CC3)CC2)no1 [Example 113, 2-(9-(5-Chloro-1-methyl-3-(5-methylisoxazol-3-yl)-1H-pyrazole-4-carbonyl)-3,9-diazaspiro[5.5]undecan-3-yl)-1-(4,4-difluoropiperidin-1-yl)ethanone]	> 1000	100 to 500
Cc1cc(-c2nn(C)c(Cl)c2CN2CCC3(CCN(CCC(C)(C)C)C3)C2)no1 (stereo not shown) [Example 54, 3-(5-Chloro-4-((7-(3,3-dimethylbutyl)-2,7-diazaspiro[4.4]nonan-2-yl)methyl)-1-methyl-1H-pyrazol-3-yl)-5-methylisoxazole]	< 100	< 100
Cc1conc1-c1nn(C)c(Cl)c1CN1CCCCC(NCCC(C)C)C1 (stereo not shown) [Example 28, 1-((5-Chloro-1-methyl-3-(4-methylisoxazol-3-yl)-1H-pyrazol-4-yl)methyl)-N-isopentylazepan-3-amine]	100 to 500	100 to 500
CCn1nc(-c2cc(C)on2)c(CN2CCCCC(NCCC(C)(C)C)C2)c1Cl (stereo not shown) [Example 22, 1-((5-Chloro-1-ethyl-3-(5-methylisoxazol-3-yl)-1H-pyrazol-4-yl)methyl)-N-(3,3-dimethylbutyl)azepan-3-amine]	100 to 500	100 to 500
Cc1cc(-c2nn(C)c(F)c2C(=O)N2CCC3(CCN(CCC(C)(C)C)CC3)CC2)no1 [Example 98, (9-(3,3-Dimethylbutyl)-3,9-diazaspiro[5.5]undecan-3-yl)(5-fluoro-1-methyl-3-(5-methylisoxazol-3-yl)-1H-pyrazol-4-yl)methanone]	500 to 1000	< 100

More lines, now with the values ahead:

Ki [1] [nM]	Ki [2] [nM]	SMILES
100 to 500	< 100	CCn1nc(-c2cc(C)on2)c(CC(=O)N2CCCC3(CCN(CCC(C)(C)C)CC3)C2)c1Cl [Example 217, 2-(5-Chloro-1-ethyl-3-(5-methylisoxazol-3-yl)-1H-pyrazol-4-yl)-1-(9-(3,3-dimethylbutyl)-2,9-diazaspiro[5.5]undecan-2-yl)ethan-1-one]
100 to 500	< 100	CCn1nc(-c2cc(C3CC3)on2)c(C(=O)N2CCC3(CCN(CCC(C)(C)C)CC3)CC2)c1Cl [Example 190, (5-Chloro-3-(5-cyclopropylisoxazol-3-yl)-1-ethyl-1H-pyrazol-4-yl)(9-(3,3-dimethylbutyl)-3,9-diazaspiro[5.5]undecan-3-yl)methanone]
500 to 1000	< 100	Cn1cc(-c2nn(C)c(Cl)c2C(=O)NC2CC3(CCN(CCC(C)(C)C)CC3)C2)cn1 [Example 140, 5-Chloro-N-(7-(3,3-dimethylbutyl)-7-azaspiro[3.5]nonan-2-yl)-1,1′-dimethyl-1H,1′H-[3,4′-bipyrazole]-4-carboxamide]
100 to 500	< 100	Cc1cc(-c2nn(C)c(Cl)c2C(=O)N2CCCC3(CCN(Cc4ccccc4)CC3)C2)no1 [Example 156, (9-Benzyl-2,9-diazaspiro[5.5]undecan-2-yl)(5-chloro-1-methyl-3-(5-methylisoxazol-3-yl)-1H-pyrazol-4-yl)methanone]
< 100	< 100	CCn1nc(-c2cc(C)on2)c(C(=O)NC2CCN(CCC(C)(C)C)CC2)c1Cl [Example 159, 5-Chloro-N-(1-(3,3-dimethylbutyl)piperidin-4-yl)-1-ethyl-3-(5-methylisoxazol-3-yl)-1H-pyrazole-4-carboxamide]
500 to 1000	< 100	CCn1nc(-c2cc(C)on2)c(C(=O)N[C@H]2CC[C@H](NCCC(C)(C)C)CC2)c1Cl [Example 200, 5-Chloro-N-((1r,4r)-4-((3,3-dimethylbutyl)amino)cyclohexyl)-1-ethyl-3-(5-methylisoxazol-3-yl)-1H-pyrazole-4-carboxamide]
100 to 500	< 100	Cn1nc(-c2cccc(C(F)(F)F)n2)c(CC(=O)N2CCC3(CCN(CCC(C)(C)C)CC3)CC2)c1Cl [Example 213, 2-(5-Chloro-1-methyl-3-(6-(trifluoromethyl)pyridin-2-yl)-1H-pyrazol-4-yl)-1-(9-(3,3-dimethylbutyl)-3,9-diazaspiro[5.5]undecan-3-yl)ethan-1-one]
100 to 500	< 100	Cc1cc(-c2nn(C)c(Cl)c2C(=O)NC2CCN(CCC(C)(C)C)CC2)no1 [Example 166, 5-Chloro-N-(1-(3,3-dimethylbutyl)piperidin-4-yl)-1-methyl-3-(5-methylisoxazol-3-yl)-1H-pyrazole-4-carboxamide]
100 to 500	< 100	CCn1nc(-c2cc(C(C)C)on2)c(C(=O)N2CCCC3(CCN(CCC(C)(C)C)CC3)C2)c1Cl [Example 152, (5-Chloro-1-ethyl-3-(5-isopropylisoxazol-3-yl)-1H-pyrazol-4-yl)(9-(3,3-dimethylbutyl)-2,9-diazaspiro[5.5]undecan-2-yl)methanone]
100 to 500	< 100	CCn1nc(-c2cc(C)on2)c(CN2CC3(CCN(CCC(C)(C)C)CC3)CC2=O)c1Cl [Example 225, 2-((5-Chloro-1-ethyl-3-(5-methylisoxazol-3-yl)-1H-pyrazol-4-yl)methyl)-8-(3,3-dimethylbutyl)-2,8-diazaspiro[4.5]decan-3-one]
100 to 500	< 100	CCn1nc(-c2cc(C)on2)c(C(=O)NCCC2CCN(CCC(C)(C)C)CC2)c1Cl [Example 158, 5-Chloro-N-(2-(1-(3,3-dimethylbutyl)piperidin-4-yl)ethyl)-1-ethyl-3-(5-methylisoxazol-3-yl)-1H-pyrazole-4-carboxamide]
> 1000	100 to 500	Cn1cc(-c2nn(C)c(Cl)c2C(=O)N2CCC3(CCN(CCC(C)(C)C)CC3)CC2)cn1 [Example 178, (5-Chloro-1,1′-dimethyl-1H,1′H-[3,4′-bipyrazol]-4-yl)(9-(3,3-dimethylbutyl)-3,9-diazaspiro[5.5]undecan-3-yl)methanone]
